What was measured:
Test in all cases: Ambit kinase profiling, competition binding
ABL2 = target: T1, ABL2 (Homo sapiens, UniProt P42684); settings: compound concentration 10 uM, read-out: Percent Competition
T1 construct: purchased Ambit Biosciences (KINOMEscan)
Text: (§1) Supplement pone.0044653.s004.xls, sheet "Compound 122" | column: Percent Competition

PIK3CA = target: T2, PIK3CA (Homo sapiens, UniProt P42336); settings: compound concentration 10 uM, read-out: Percent Competition
T2 construct: purchased Ambit Biosciences (KINOMEscan)
Text: as §1

TESK1 = target: T3, TESK1 (Homo sapiens, UniProt Q15569); settings: compound concentration 10 uM, read-out: Percent Competition
T3 construct: purchased Ambit Biosciences (KINOMEscan)
Text: as §1

HCK = target: T4, HCK (Homo sapiens, UniProt P08631); settings: compound concentration 10 uM, read-out: Percent Competition
T4 construct: purchased Ambit Biosciences (KINOMEscan)
Text: as §1

[1] = target: T5, RPS6KA4(Kin.Dom.2-C-terminal) (Homo sapiens, UniProt O75676); settings: compound concentration 10 uM, read-out: Percent Competition
T5 construct: RPS6KA4(Kin.Dom.2-C-terminal); purchased Ambit Biosciences (KINOMEscan)
Text: as §1

PRKR = target: T6, PRKR (Homo sapiens, UniProt P19525); settings: compound concentration 10 uM
T6 construct: purchased Ambit Biosciences (KINOMEscan)
Text: as §1

IKK-beta = target: T7, IKK-beta (Homo sapiens, UniProt O14920); settings: compound concentration 10 uM, read-out: Percent Competition
T7 construct: purchased Ambit Biosciences (KINOMEscan)
Text: as §1

IKK-alpha = target: T8, IKK-alpha (Homo sapiens, UniProt O15111); settings: compound concentration 10 uM, read-out: Percent Competition
T8 construct: purchased Ambit Biosciences (KINOMEscan)
Text: as §1

PRKG1 = target: T9, PRKG1 (Homo sapiens, UniProt Q13976); settings: compound concentration 10 uM, read-out: Percent Competition
T9 construct: purchased Ambit Biosciences (KINOMEscan)
Text: as §1

CSF1R = target: T10, CSF1R (Homo sapiens, UniProt P07333); settings: compound concentration 10 uM, read-out: Percent Competition
T10 construct: purchased Ambit Biosciences (KINOMEscan)
Text: as §1

TIE1 = target: T11, TIE1 (Homo sapiens, UniProt P35590); settings: compound concentration 10 uM, read-out: Percent Competition
T11 construct: purchased Ambit Biosciences (KINOMEscan)
Text: as §1

SRMS = target: T12, SRMS (Homo sapiens, UniProt Q9H3Y6); settings: compound concentration 10 uM, read-out: Percent Competition
T12 construct: purchased Ambit Biosciences (KINOMEscan)
Text: as §1

DAPK2 = target: T13, DAPK2 (Homo sapiens, UniProt Q9UIK4); settings: compound concentration 10 uM, read-out: Percent Competition
T13 construct: purchased Ambit Biosciences (KINOMEscan)
Text: as §1

PKMYT1 = target: T14, PKMYT1 (Homo sapiens, UniProt Q99640); settings: compound concentration 10 uM
T14 construct: purchased Ambit Biosciences (KINOMEscan)
Text: as §1

MYLK = target: T15, MYLK (Homo sapiens, UniProt Q15746); settings: compound concentration 10 uM, read-out: Percent Competition
T15 construct: purchased Ambit Biosciences (KINOMEscan)
Text: as §1

PFTK1 = target: T16, PFTK1 (Homo sapiens, UniProt O94921); settings: compound concentration 10 uM
T16 construct: purchased Ambit Biosciences (KINOMEscan)
Text: as §1

ANKK1 = target: T17, ANKK1 (Homo sapiens, UniProt Q8NFD2); settings: compound concentration 10 uM, read-out: Percent Competition
T17 construct: purchased Ambit Biosciences (KINOMEscan)
Text: as §1

FLT1 = target: T18, FLT1 (Homo sapiens, UniProt P17948); settings: compound concentration 10 uM, read-out: Percent Competition
T18 construct: purchased Ambit Biosciences (KINOMEscan)
Text: as §1

BMPR1A = target: T19, BMPR1A (Homo sapiens, UniProt P36894); settings: compound concentration 10 uM, read-out: Percent Competition
T19 construct: purchased Ambit Biosciences (KINOMEscan)
Text: as §1

FLT3(D835H) = target: T20, FLT3(D835H) (Homo sapiens, UniProt P36888, D835H); settings: compound concentration 10 uM, read-out: Percent Competition
T20 construct: purchased Ambit Biosciences (KINOMEscan)
Text: as §1

PAK2 = target: T21, PAK2 (Homo sapiens, UniProt Q13177); settings: compound concentration 10 uM, read-out: Percent Competition
T21 construct: purchased Ambit Biosciences (KINOMEscan)
Text: as §1

PAK6 = target: T22, PAK6 (Homo sapiens, UniProt Q9NQU5); settings: compound concentration 10 uM, read-out: Percent Competition
T22 construct: purchased Ambit Biosciences (KINOMEscan)
Text: as §1

DCAMKL2 = target: T23, DCAMKL2 (Homo sapiens, UniProt Q8N568); settings: compound concentration 10 uM, read-out: Percent Competition
T23 construct: purchased Ambit Biosciences (KINOMEscan)
Text: as §1

LOK = target: T24, LOK (Homo sapiens, UniProt O94804); settings: compound concentration 10 uM
T24 construct: purchased Ambit Biosciences (KINOMEscan)
Text: as §1

LIMK1 = target: T25, LIMK1 (Homo sapiens, UniProt P53667); settings: compound concentration 10 uM, read-out: Percent Competition
T25 construct: purchased Ambit Biosciences (KINOMEscan)
Text: as §1

BRK = target: T26, BRK (Homo sapiens, UniProt Q13882); settings: compound concentration 10 uM, read-out: Percent Competition
T26 construct: purchased Ambit Biosciences (KINOMEscan)
Text: as §1

[2] = target: T27, JAK2(JH1domain-catalytic) (Homo sapiens, UniProt O60674); settings: compound concentration 10 uM
T27 construct: JAK2(JH1domain-catalytic); purchased Ambit Biosciences (KINOMEscan)
Text: as §1

ABL1 = target: T28, ABL1 (Homo sapiens, UniProt P00519); settings: compound concentration 10 uM, read-out: Percent Competition
T28 construct: purchased Ambit Biosciences (KINOMEscan)
Text: as §1

PKAC-alpha = target: T29, PKAC-alpha (Homo sapiens, UniProt P17612); settings: compound concentration 10 uM, read-out: Percent Competition
T29 construct: purchased Ambit Biosciences (KINOMEscan)
Text: as §1

MKNK1 = target: T30, MKNK1 (Homo sapiens, UniProt Q9BUB5); settings: compound concentration 10 uM, read-out: Percent Competition
T30 construct: purchased Ambit Biosciences (KINOMEscan)
Text: as §1

DMPK = target: T31, DMPK (Homo sapiens, UniProt Q09013); settings: compound concentration 10 uM, read-out: Percent Competition
T31 construct: purchased Ambit Biosciences (KINOMEscan)
Text: as §1

PIK3C2B = target: T32, PIK3C2B (Homo sapiens, UniProt O00750); settings: compound concentration 10 uM, read-out: Percent Competition
T32 construct: purchased Ambit Biosciences (KINOMEscan)
Text: as §1

ABL1(M351T) = target: T33, ABL1(M351T) (Homo sapiens, UniProt P00519, M351T); settings: compound concentration 10 uM, read-out: Percent Competition
T33 construct: purchased Ambit Biosciences (KINOMEscan)
Text: as §1

MLK2 = target: T34, MLK2 (Homo sapiens, UniProt Q02779); settings: compound concentration 10 uM, read-out: Percent Competition
T34 construct: purchased Ambit Biosciences (KINOMEscan)
Text: as §1

PYK2 = target: T35, PYK2 (Homo sapiens, UniProt Q14289); settings: compound concentration 10 uM, read-out: Percent Competition
T35 construct: purchased Ambit Biosciences (KINOMEscan)
Text: as §1

WEE1 = target: T36, WEE1 (Homo sapiens, UniProt P30291); settings: compound concentration 10 uM, read-out: Percent Competition
T36 construct: purchased Ambit Biosciences (KINOMEscan)
Text: as §1

NEK6 = target: T37, NEK6 (Homo sapiens, UniProt Q9HC98); settings: compound concentration 10 uM, read-out: Percent Competition
T37 construct: purchased Ambit Biosciences (KINOMEscan)
Text: as §1

MAP4K2 = target: T38, MAP4K2 (Homo sapiens, UniProt Q12851); settings: compound concentration 10 uM, read-out: Percent Competition
T38 construct: purchased Ambit Biosciences (KINOMEscan)
Text: as §1

FGFR3(G697C) = target: T39, FGFR3(G697C) (Homo sapiens, UniProt P22607, G697C); settings: compound concentration 10 uM, read-out: Percent Competition
T39 construct: purchased Ambit Biosciences (KINOMEscan)
Text: as §1

ASK1 = target: T40, ASK1 (Homo sapiens, UniProt Q99683); settings: compound concentration 10 uM, read-out: Percent Competition
T40 construct: purchased Ambit Biosciences (KINOMEscan)
Text: as §1

CSNK2A2 = target: T41, CSNK2A2 (Homo sapiens, UniProt P19784); settings: compound concentration 10 uM, read-out: Percent Competition
T41 construct: purchased Ambit Biosciences (KINOMEscan)
Text: as §1

SMILES: Fc1ccc(-c2c(-c3ccncc3)[nH]c3nccnc23)cc1 [RO1155697-000-005]
- inhibition at 10 µM (ABL2): < 50%
- inhibition at 10 µM (PIK3CA): < 50%
- inhibition at 10 µM (TESK1): < 50%
- inhibition at 10 µM (HCK): < 50%
- inhibition at 10 µM [1]: < 50%
- Percent Competition (PRKR): <50%
- inhibition at 10 µM (IKK-beta): < 50%
- inhibition at 10 µM (IKK-alpha): < 50%
- inhibition at 10 µM (PRKG1): < 50%
- inhibition at 10 µM (CSF1R): < 50%
- inhibition at 10 µM (TIE1): < 50%
- inhibition at 10 µM (SRMS): < 50%
- inhibition at 10 µM (DAPK2): < 50%
- Percent Competition (PKMYT1): <50%
- inhibition at 10 µM (MYLK): < 50%
- Percent Competition (PFTK1): <50%
- inhibition at 10 µM (ANKK1): < 50%
- inhibition at 10 µM (FLT1): < 50%
- inhibition at 10 µM (BMPR1A): < 50%
- inhibition at 10 µM (FLT3(D835H)): < 50%
- inhibition at 10 µM (PAK2): < 50%
- inhibition at 10 µM (PAK6): < 50%
- inhibition at 10 µM (DCAMKL2): < 50%
- Percent Competition (LOK): <50%
- inhibition at 10 µM (LIMK1): < 50%
- inhibition at 10 µM (BRK): < 50%
- Percent Competition [2]: <50%
- inhibition at 10 µM (ABL1): < 50%
- inhibition at 10 µM (PKAC-alpha): < 50%
- inhibition at 10 µM (MKNK1): < 50%
- inhibition at 10 µM (DMPK): < 50%
- inhibition at 10 µM (PIK3C2B): < 50%
- inhibition at 10 µM (ABL1(M351T)): < 50%
- inhibition at 10 µM (MLK2): < 50%
- inhibition at 10 µM (PYK2): < 50%
- inhibition at 10 µM (WEE1): < 50%
- inhibition at 10 µM (NEK6): < 50%
- inhibition at 10 µM (MAP4K2): < 50%
- inhibition at 10 µM (FGFR3(G697C)): < 50%
- inhibition at 10 µM (ASK1): < 50%
- inhibition at 10 µM (CSNK2A2): < 50%
